Measured values: patent US8674118B2, “Compounds and methods for the treatment or prevention of flavivirus infections” (priority 2005, dated 2014)
Counter-ions that a name gives are not always drawn.

Tested on: HCV RNA replication (replicon cell lines Huh-7, 5.2 and ET)
Test: Cell-Based Luciferase Reporter HCV RNA Replication Assay
Details: Hepatitis C virus, Huh-7, 96 h, Huh-7, 5.2 or ET replicon cells, luciferase counts after 4 days incubation; read-out: IC50

| Compound | IC50 |
| --- | --- |
| C[C@H]1CC[C@H](C(=O)N(c2cc([C@H]3CC[C@H](C)CC3)sc2C(=O)O)[C@H]2CC[C@H](O)CC2)CC1 [Compound 77, 3-[(trans-4-hydroxy-cyclohexyl)-(trans-4-methyl-cyclohexanecarbonyl)-amino]-5-(trans-4-methyl-cyclohexyl)-thiophene-2-carboxylic acid] | < 5 µM |
| C[C@H]1CC[C@H](C(=O)N(c2cc([C@H]3CC[C@@H](C)CC3)sc2C(=O)O)[C@H]2CC[C@H](O)CC2)CC1 [Compound 78, 3-[(trans-4-hydroxy-cyclohexyl)-(trans-4-methyl-cyclohexanecarbonyl)-amino]-5-(cis-4-methyl-cyclohexyl)-thiophene-2-carboxylic acid] | < 5 µM |
| CC1CCC(C(=O)N(c2cc(C3=CCCCC3)sc2C(=O)O)C2CCC3(CC2)CNC(=O)C3)CC1 (stereo not drawn) [Compound 80, 5-cyclohex-1-enyl-3-[(trans-4-methyl-cyclohexanecarbonyl)-cis-(3-oxo-2-aza-spiro[4.5]dec-8-yl)-amino]-thiophene-2-carboxylic acid] | < 5 µM |
| CC1(C)CCC(c2cc(N(C(=O)[C@H]3CC[C@H](C)CC3)[C@H]3CC[C@H](F)CC3)c(C(=O)O)s2)CC1 [Compound 83, 5-(4,4-dimethyl-cyclohexyl)-3-[(trans-4-fluoro-cyclohexyl)-(trans-4-methyl-cyclohexanecarbonyl)-amino]-thiophene-2-carboxylic acid] | < 5 µM |
| CC1CCC(C(=O)N(c2cc(C3=CCCCC3)sc2C(=O)O)C2CCC3(CC2)CC(=O)N(C)C3)CC1 (stereo not drawn) [Compound 84, 5-cyclohex-1-enyl-3-[(trans-4-methyl-cyclohexanecarbonyl)-cis-(2-methyl-3-oxo-2-aza-spiro[4.5]dec-8-yl)-amino]-thiophene-2-carboxylic acid] | < 5 µM |
| CC1CCC(C(=O)N(c2cc(C3CCC(=O)CC3)sc2C(=O)O)C2CCC(O)CC2)CC1 (stereo not drawn) [Compound 86, 3-[(4-trans-hydroxy-cyclohexyl)-(4-trans-methyl-cyclohexanecarbonyl)-amino]-5-(4-oxo-cyclohexyl)-thiophene-2-carboxylic acid] | 5 to 25 µM |
| CC1CCC(C(=O)N(c2cc(C3=CCCCC3)sc2C(=O)O)C2CCN3C(=O)CCC3C2)CC1 (stereo not drawn) [Compound 87, RS-5-cyclohex-1-enyl-3-[(4-trans-methyl-cyclohexanecarbonyl)-(3-oxo-octahydro-indolizin-7-yl)-amino]-thiophene-2-carboxylic acid] | < 5 µM |
| CC1(C)CC=C(c2cc(N(C(=O)[C@H]3CC[C@H](C)CC3)[C@H]3CC[C@@H](n4cncn4)CC3)c(C(=O)O)s2)CC1 [Compound 94, 5-(4,4-dimethyl-cyclohex-1-enyl)-3-[(trans-4-methyl-cyclohexanecarbonyl)-(cis-4-[1,2,4]triazol-1-yl-cyclohexyl)-amino]-thiophene-2-carboxylic acid; hydrochloride] | < 5 µM |
| CC1(C)CC=C(c2cc(N(C(=O)[C@H]3CC[C@H](C)CC3)[C@H]3CC[C@H](n4cncn4)CC3)c(C(=O)O)s2)CC1 [Compound 95, 5-(4,4-dimethyl-cyclohex-1-enyl)-3-[(trans-4-methyl-cyclohexanecarbonyl)-(trans-4-[1,2,4]triazol-1-yl-cyclohexyl)-amino]-thiophene-2-carboxylic acid; hydrochloride] | < 5 µM |
| C[C@H]1CC[C@H](C(=O)N(c2cc(C3=CCCCC3)sc2C(=O)O)C2CCN(c3cncnc3)CC2)CC1 [Compound 96, 5-cyclohex-1-enyl-3-[(trans-4-methyl-cyclohexanecarbonyl)-(1-pyrimidin-5-yl-piperidin-4-yl)-amino]-thiophene-2-carboxylic acid] | < 5 µM |
| CC1(C)CCC(c2cc(N(C(=O)[C@H]3CC[C@H](C)CC3)C3COCOC3)c(C(=O)O)s2)CC1 [Compound 97, 5-(4,4-Dimethyl-cyclohexyl)-3-[[1,3]dioxan-5-yl-(trans-4-methyl-cyclohexanecarbonyl)-amino]-thiophene-2-carboxylic acid] | < 5 µM |
| C[C@H]1CC[C@H](C(=O)N(c2cc(C3=CCCCC3)sc2C(=O)O)C2CCN(C=O)CC2)CC1 [Compound 98, 5-cyclohex-1-enyl-3-[(1-formyl-piperidin-4-yl)-(trans-4-methyl-cyclohexanecarbonyl)-amino]-thiophene-2-carboxylic acid] | < 5 µM |
| CC1CCC(C(=O)N(c2cc(C3=CCCCC3)sc2C(=O)O)C2CCC(C)(C#N)CC2)CC1 (stereo not drawn) [Compound 99, 3-[(cis-4-cyano-4-methyl-cyclohexyl)-(trans-4-methyl-cyclohexanecarbonyl)-amino]-5-cyclohex-1-enyl-thiophene-2-carboxylic acid] | < 5 µM |
| CS(=O)(=O)N1CCC(N(c2cc(C3=CCCCC3)sc2C(=O)O)C(=O)[C@H]2CC[C@H](C)CC2)CC1 [Compound 101, 5-cyclohex-1-enyl-3-[(1-methanesulfonyl-piperidin-4-yl)-(trans-4-methyl-cyclohexanecarbonyl)-amino]-thiophene-2-carboxylic acid] | < 5 µM |
| C[C@H]1CC[C@H](C(=O)N(c2cc(C3=CCCCC3)sc2C(=O)O)C2CCN(C#N)CC2)CC1 [Compound 102, 3-[(1-cyano-piperidin-4-yl)-(trans-4-methyl-cyclohexanecarbonyl)-amino]-5-cyclohex-1-enyl-thiophene-2-carboxylic acid] | < 5 µM |
| CC1CCC(C(=O)N(c2cc(C3=CCCCC3)sc2C(=O)O)C2CCN(c3ncccn3)CC2)CC1 (stereo not drawn) [Compound 103, 5-cyclohex-1-enyl-3-[(trans, 4-methyl-cyclohexanecarbonyl)-(1-pyrimidin-2-yl-piperidin-4-yl)-amino]-thiophene-2-carboxylic acid] | < 5 µM |
| CC1CCC(C(=O)N(c2cc(C3=CCCCC3)sc2C(=O)O)C2CCC(n3ccnn3)CC2)CC1 (stereo not drawn) [Compound 104, 5-cyclohex-1-enyl-3-[(trans-4-methyl-cyclohexanecarbonyl)-(cos-4-[1,2,3]triazol-1-yl-cyclohexyl)-amino]-thiophene-2-carboxylic acid] | < 5 µM |
| COCC(COC)N(c1cc(C2=CCCCC2)sc1C(=O)O)C(=O)[C@H]1CC[C@H](C)CC1 [Compound 111, 5-cyclohex-1-enyl-3-[(2-methoxy-1-methoxymethyl-ethyl)-(trans-4-methyl-cyclohexanecarbonyl)-amino]-thiophene-2-carboxylic acid] | < 5 µM |
| COC1CCC(N(C(=O)C2CCC(C)CC2)c2cc(C3CCCCC3)sc2C(=O)O)CC1 (stereo not drawn) [Compound 112, 5-cyclohexyl-3-[(4-trans-methoxy-cyclohexyl)-(4-trans-methyl-cyclohexanecarbonyl)-amino]-thiophene-2-carboxylic acid] | < 5 µM |
| COC1CCC(N(C(=O)C2CCC(C)CC2)c2cc(C3CCC(=O)CC3)sc2C(=O)O)CC1 (stereo not drawn) [Compound 113, 3-[(4-trans-methoxy-cyclohexyl)-(4-trans-methyl-cyclohexanecarbonyl)-amino]-5-(4-oxo-cyclohexyl)-thiophene-2-carboxylic acid] | < 5 µM |
| COCOC1CCC(N(C(=O)C2CCC(C)CC2)c2cc(C3=CCC(C)(C)CC3)sc2C(=O)O)CC1 (stereo not drawn) [Compound 114, 5-(4,4-dimethyl-cyclohex-1-enyl)-3-[(4-trans-methoxymethoxy-cyclohexyl)-(4-trans-methyl-cyclohexanecarbonyl)-amino]-thiophene-2-carboxylic acid] | < 5 µM |
| CC1CCC(C(=O)N(c2cc(C3=CCCCC3)sc2C(=O)O)C2CC=CCC2)CC1 (stereo not drawn) [Compound 115, RS-5-cyclohex-1-enyl-3-[cyclohex-3-enyl-(4-trans-methyl-cyclohexanecarbonyl)-amino]-thiophene-2-carboxylic acid] | < 5 µM |
| COCOC1CCC(N(C(=O)C2CCC(C)CC2)c2cc(C3CCC(C)(C)CC3)sc2C(=O)O)CC1 (stereo not drawn) [Compound 116, 5-(4,4-dimethyl-cyclohexyl)-3-[(4-trans-methoxymethoxy-cyclohexyl)-(4-trans-methyl-cyclohexanecarbonyl)-amino]-thiophene-2-carboxylic acid] | < 5 µM |
| CC1(C)CCC(c2cc(N(C(=O)[C@H]3CC[C@H](C)CC3)[C@H]3CC[C@@H](n4cncn4)CC3)c(C(=O)O)s2)CC1 [Compound 117, 5-(4,4-dimethyl-cyclohexyl)-3-[(trans-4-methyl-cyclohexanecarbonyl)-(cis-4-[1,2,4]triazol-1-yl-cyclohexyl)-amino]-thiophene-2-carboxylic acid; hydrochloride] | < 5 µM |
| CC1CCC(C(=O)N(c2cc(C3CCC(C)(C)CC3)sc2C(=O)O)C2CCC(n3cncn3)CC2)CC1 (stereo not drawn) [Compound 118, 5-(4,4-dimethyl-cyclohexyl)-3-[(trans-4-methyl-cyclohexanecarbonyl)-(trans-4-[1,2,4]triazol-1-cyclohexyl)-amino]-thiophene-2-carboxylic acid; hydrochloride] | < 5 µM |

Same assay, conditions: Huh-7, 5.2 or ET replicon cells, luciferase counts after 4 days incubation; read-out: IC50

| Compound | IC50 |
| --- | --- |
| CC1CCC(C(=O)N(c2cc(C3=CCCCC3)sc2C(=O)O)C2CCC3(CC2)CN(C)C(=O)N3C)CC1 (stereo not drawn) [Compound 74, 5-cyclohex-1-enyl-3-[trans-(1,3-dimethyl-2-oxo-1,3-diaza-spiro[4.5]dec-8-yl)-(trans-4-methyl-cyclohexanecarbonyl)-amino]-thiophene-2-carboxylic acid] | < 5 µM |
| CC1CCC(C(=O)N(c2cc(C3=CCCCC3)sc2C(=O)O)C2CCC3(CC2)CNC(=O)C3)CC1 (stereo not drawn) [Compound 81, 5-cyclohex-1-enyl-3-[(trans-4-methyl-cyclohexanecarbonyl)-trans-(3-oxo-2-aza-spiro[4.5]dec-8-yl)-amino]-thiophene-2-carboxylic acid] | < 5 µM |
| CC1CCC(C(=O)N(c2cc(C3=CCCCC3)sc2C(=O)O)C2CCC(n3ccnn3)CC2)CC1 (stereo not drawn) [Compound 105, 5-cyclohex-1-enyl-3-[(trans-4-methyl-cyclohexanecarbonyl)-(trans-4-[1,2,3]triazol-1-cyclohexyl)-amino]-thiophene-2-carboxylic acid] | < 5 µM |
| CC1CCC(C(=O)N(c2cc(C3=CCCCC3)sc2C(=O)O)C2CCC(C)(C#N)CC2)CC1 (stereo not drawn) [Compound 106, 3-[(trans-4-cyano-4-methyl-cyclohexyl)-(trans-4-methylcyclohexanecarbonyl)-amino]-5-cyclohex-1-enyl-thiophene-2-carboxylic acid] | < 5 µM |
